In brackets after ≈: the same amount, converted by molar mass. Several values for one entry are separate records, joined by “and”; a condition that tells them apart may be missing. Equal values may be shown once. Entries after “also recorded” stand apart in the source; their conditions may differ. Read-outs that look alike come from different tables or passages of the source. Marks after values point to notes of the source that are not given here.
Key:
MRSA-44 = assay: MIC susceptibility assay (broth microdilution); settings: Staphylococcus aureus, 16 h, read-out: MIC MRSA-44
Protocol: (§1) (MIC values were further supported by spectrophotometric readings at OD600). The concentration range tested for each HP compound during this study was 0.05 to 50 μM. DMSO served as our vehicle and negative control in each microdilution MIC assay. DMSO was serially diluted with a top concentration of 0.5% v/v.

S. aureus = assay: Antibacterial MIC, initial phenazine collection; type: cell-based; settings: Staphylococcus aureus; initial discovery; read-out: MIC against S. aureus
S. epidermidis = assay: Antibacterial MIC, initial phenazine collection; type: cell-based; settings: Staphylococcus epidermidis; initial discovery; read-out: MIC against S. epidermidis
E. faecalis OG1RF [1] = assay: MIC susceptibility assay (broth microdilution); settings: Enterococcus faecalis, 16 h, read-out: MIC E. faecalis OG1RF
Protocol: as §1

MRSA-1707 = assay: MIC susceptibility assay (broth microdilution); settings: 16 h; for MIC: Staphylococcus aureus, MRSA, read-out: MIC MRSA-1707, planktonic growth inhibition, 16 h, 37° C.; for MIC MRSA-1707: planktonic growth inhibition, 37° C.
Protocol: as §1

MRSE 35984 = assay: MIC susceptibility assay (broth microdilution); settings: Staphylococcus epidermidis, MRSE, 16 h, read-out: MIC MRSE 35984
Protocol: as §1

S. aureus 138 = assay: MIC assay against clinical isolate; type: cell-based; settings: Staphylococcus aureus
J774 MΦ = assay: Alamar Blue cytotoxicity assay, J774 macrophages; settings: read-out: J774 MΦ Cytotox. (IC50), 24-h
[2] = tested on: isdB, sfaA, sbnC, MW0695 transcripts in MRSA-1707 biofilms; assay: RT-qPCR of iron uptake genes in MRSA biofilms; settings: 4 h treatment at 1 μM or 1/10×MBEC
S. aureus UAMS-1 = assay: S. aureus dermal (dorsal) wound infection model in mice; settings: BALB/c mice, topical 2% PEG ointment every 12 hours, three consecutive days
Excerpt: (§2) In separate experiments, wounds were created on the mouse's dorsal mid-section using a biopsy punch to remove the dermal layer. The resulting wound was inoculated with either S. aureus UAMS-1 (1×10^7 CFU/mL), or E. faecalis OG1RF ([…] CFU/mL) to establish infection.
Staphylococcus aureus strain UAMS-1, a well-characterized antibiotic susceptible clinical isolate commonly used to study the organism's biofilm formation and colonization properties, was used in animal experiments during these studies.^59 Female BALB/c mice 4 to 6 weeks of age were obtained from Charles River Laboratories International, Inc. (Wilmington, MA) and housed individually according to approved University of Rochester Medical Center Council on Animal Research (UCAR) protocol UCAR-101864/2017-022.
S. aureus Dermal Wound Infection Model. The effects of ointment compilations were evaluated for in vivo antimicrobial activity using a dermal wound infection mouse model, as previously described.^52 Briefly, mice were anesthetized by intraperitoneal injection with a mixture of 100 mg kg^−1 Ketamine (Hospira Inc., Lake Forest IL) and 10 mg kg^−1 Xylazine (Lloyd Laboratories, Shenandoah IA) in PBS. Two mg kg^−1 meloxicam (Henry Schein Animal Health, Portland, ME) was administered prior to dermal wounding. […]

MRSA 1 = assay: MIC assay against clinical isolate; type: cell-based, S. aureus; settings: Staphylococcus aureus
[3] = pKa determination by UV-vis spectroscopy; type: physicochemical
Protocol: (c) pKa determination of select HP analogues.^36 Dissociation constants (pKa) for select HP analogues were determined using UV-vis spectroscopy and the Henderson-Hasselbalch equation. Buffers were prepared using potassium phosphate monobasic (KH2PO4) and sodium phosphate dibasic ([…]) in a 1:1 solution of water:methanol to achieve a pH range of 4.07 to 9.66 (ammonium hydroxide was added to prepare buffer pH over 9.80). Compounds were added from 10 mM stock solutions in dimethyl sulfoxide (25 μL) to 1975 μL of each buffer to each evaluate analogue to yield a final compound concentration of 125 μM. Full spectral scans were performed from 200 to 800 nm in 2 nm increments to determine λmax values for the protonated phenol (HA) and the deprotonated phenolate species (A^−). The change in absorption at each determined λmax in relation to pH was monitored in each buffer and plotted as absorbance versus pH for each species. The pKa was first estimated by determining the pH of the point of intersection of the two linear curves. The visual estimation was confirmed by plotting pH versus log [A^−/HA]. The resulting plot yielded a linear regression line with a Y-intercept corresponding to a calculated pKa value.

S. aureus 129 = assay: MIC assay against clinical isolate; type: cell-based; settings: Staphylococcus aureus
[4] = tested on: MRSA, MRSE and VRE strains; assay: MIC assays, summary statements over several Gram-positive strains; settings: for MICs against all Gram-positive strains in the panel: result in words
Protocol: as §1

HepG2 cells = assay: Alamar Blue cytotoxicity assay, HepG2; settings: read-out: Hep G2 Cytotox. (IC50), 24-h
HeLa cells = assay: LDH release assay for HeLa cytotoxicity; settings: read-out: HeLa Cell Cytotox. (IC50), 24-h, tested at 25, 50 and 100 μM
MRSA 2 = assay: MIC assay against clinical isolate; type: cell-based, S. aureus; settings: Staphylococcus aureus
E. faecalis OG1RF [5] = assay: E. faecalis dorsal wound infection model in mice; settings: C57BL/6J mice, topical PEG ointment once a day, day 3
Excerpt: as §2
Enterococcus faecalis strain OG1RF was used in animal experiments during these investigations. Seven-week old female C57BL/6J mice were purchased from Jackson Laboratories Ltd. and housed according to the University of Florida's approved IACUC protocol 201709769.
E. faecalis Dorsal Wound Infection Model. […] On day 3 (2 days of treatment) post-infection, animals were euthanized and the wounds aseptically excised using a surgical blade and the tissues homogenized in 1 mL of sterile PBS. The homogenates were serially diluted and plated on trypticase soy (TSA) agar containing rifampicin and fusidic acid for bacterial enumeration.

HEK-293 cells = assay: MTT cytotoxicity assay, HEK-293; settings: read-out: HEK-293 Cytotox. (IC50), 72-h
Mtb CDC1551 = assay: microbe, parasite or virus in culture; type: cell-based, Mycobacterium tuberculosis
human red blood cells = assay: Hemolysis assay with red blood cells
Protocol: Hemolysis assays are used to determine the membrane-lysis activity of a compound, which is of particular interest to this work as membrane-lysing agents (e.g., QACs) can eradicate biofilms.
Cytotoxicity Assay against HEK-293 Cells.^48 The viability of HEK-293 cells was assessed by the MTT assay. The cells were cultured in DMEM medium containing 10% fetal bovine serum and 100 U/mL penicillin and streptomycin. The cells (10^4 cells/well) were seeded onto a 96-well plate and maintained at 37° C. in a humidified incubator under 5% CO2 overnight. […] After incubation at 37° C. for 72 hours, 10 μL of MTT (5 mg/mL) in PBS was added to each well and incubated for 4 hours, followed by the aspiration of the medium. Dimethyl sulfoxide (DMSO, 100 μL) was then added to each well to dissolve the MTT in the wells, and the plate was agitated for 1 hour. The optical density (OD) was measured at 570 nm using a UV/vis microplate spectrophotometer (BioTek). The percent inhibition was calculated as follows: Inhibition (%)=(1−test OD570/non-treated OD570)×100%. The data were analyzed by Origin. Hemolysis Assay with Red Blood Cells. […] The washing was repeated three times with the buffer. In 96-well plate, test compounds were added to the buffer from DMSO stocks. […] The plate was then incubated for 1 hour at 37° C. After incubation, the plate was centrifuged for 5 minutes at 3,500 rpm before 80 μL of the supernatant was transferred to another 96-well plate to obtain an optical density (OD) read at 405 nm. DMSO served as the negative control (0% hemolysis) while Triton X served as the positive control (100% hemolysis) in these experiments. The percent hemolysis was calculated as (OD405 of the compound treated RBCs−OD405 DMSO control)/(OD405 Triton X treated RBCs−OD405 buffer) from three independent experiments.

S. aureus 147 = assay: MIC assay against clinical isolate; type: cell-based; settings: Staphylococcus aureus, 147; clinical isolate; read-out: MIC S. aureus 147
S. aureus 156 = assay: MIC assay against clinical isolate; type: cell-based; settings: Staphylococcus aureus, 156, read-out: MIC S. aureus 156
[6] = tested on: E. faecalis OG1RF biofilms; assay: Calgary Biofilm Device (CBD) assay; settings: Enterococcus faecalis, OG1RFBIOFILMS, read-out: E.faecalis OG1RF MBC
MRSE 35984 biofilms = assay: Calgary Biofilm Device (CBD) assay; settings: for MBC: Staphylococcus epidermidis, MRSE, read-out: MRSE 35984 MBC
VRE 700221 biofilms = assay: Calgary Biofilm Device (CBD) assay; settings: Enterococcus, read-out: VRE 700221 MBC
MRSA 44 biofilms = assay: Calgary Biofilm Device (CBD) assay; settings: biofilm eradication in CBD assay
[7] = tested on: isdB, sfaA, sbnC, MW0695 transcripts in MRSA-1707 biofilms; settings: at 5 μM, reported earlier; cited from earlier work
MRSA-1707 biofilms = assay: Calgary Biofilm Device (CBD) assay; settings: Staphylococcus aureus, read-out: MRSA-1707 MBC
[8] = tested on: S. aureus strain ATCC 29213; assay: MIC against methicillin-susceptible strain; type: cell-based; settings: Staphylococcus aureus, ATCC29213; strain susceptible to methicillin
[9] = Mycobacterium tuberculosis, CDC1551, 120 h

Row | Structure (SMILES) | MIC (MRSA-44) [µM] | MIC (E. faecalis OG1RF [1]) [µM] | MIC (MRSA-1707) [µM] | MIC (MRSE 35984) [µM] | MIC (S. aureus 138) [µM] | MIC (MRSA 1) [µM] | MIC (S. aureus 129) [µM] | MIC (MRSA 2) [µM] | % Hemolysis at 200 μM (human red blood cells; human RBCs, 1 hour, 37° C.) [%] | MIC (S. aureus 147) [µM] | MIC (S. aureus 156) [µM] | MBC [6] [µM] | other results
1 | Oc1c(Br)ccc2nc3ccccc3nc12 [Compound 1, 2-bromo-1-hydroxyphenazine, reference compound] | 3.13 (≈ 0.861 µg/mL) | 18.8 (≈ 5.17 µg/mL) | 3.13 (≈ 0.861 µg/mL) | 3.13 (≈ 0.861 µg/mL) | – | – | – | – | – | – | – | – | MIC (S. aureus): 6.25 µM (≈ 1.72 µg/mL); MIC (S. epidermidis): 6.25 µM (≈ 1.72 µg/mL)
2 | Cc1cccc2nc3c(O)c(Br)c(Cl)c(Br)c3nc12 [Compound 29, 2,4-Dibromo-3-chloro-6-methylphenazin-1-ol] | 0.08 (≈ 0.0322 µg/mL) | 0.3 (≈ 0.121 µg/mL) | – | – | 0.08 (≈ 0.0322 µg/mL) | 0.06 (≈ 0.0241 µg/mL) | 0.12 (≈ 0.0483 µg/mL) | 0.12 (≈ 0.0483 µg/mL) | ≤1 | 0.12 (≈ 0.0483 µg/mL) | 0.08 (≈ 0.0322 µg/mL) | – | IC50 (J774 MΦ): > 200 µM; iron starvation / up-regulation of iron uptake genes in MRSA-1707 biofilms [2]: induction of iron starvation; also recorded: up-regulating iron uptake genes; also recorded: induced rapid iron starvation; also recorded: rapidly induce iron starvation; log10 reduction in CFU per lesion of S. aureus UAMS-1 compared to vehicle (S. aureus UAMS-1): 0.82 log10; pKa [3]: 6.79; MIC ([4]; read-out: MIC against MRSA, MRSE and VRE strains): 0.05 to 0.1 µM (≈ 0.0201 to 0.0402 µg/mL); MIC ([4]; read-out: MIC against MRSA/MRSE strains): 0.075 µM (≈ 0.0302 µg/mL); MICs against all Gram-positive strains in the panel [4]: sub-micromolar; IC50 (HepG2 cells): > 200 µM; IC50 (HeLa cells): > 100 µM; log10 reduction of E. faecalis OG1RF compared to vehicle control (E. faecalis OG1RF [5]): 1.73 log10; IC50 (HEK-293 cells): 18.3 ± 5.8 µM; MIC (Mtb CDC1551): 1.59 µM (≈ 0.64 µg/mL); MIC (Mtb CDC1551; [9]): 1.59 µM (≈ 0.64 µg/mL); MIC MRSA-1707 (MRSA-1707): 0.08^a μM
3 | Oc1c(Br)c(Cl)c(Br)c2nc3c(Cl)cc(Cl)cc3nc12 [Compound 34, 2,4-Dibromo-3,6,8-trichlorophenazin-1-ol] | 0.15 (≈ 0.0686 µg/mL) | 0.3 (≈ 0.137 µg/mL) | 0.59 (≈ 0.27 µg/mL) | ≤ 0.05 | 0.94 (≈ 0.43 µg/mL) | 1.25 (≈ 0.572 µg/mL) | 0.63 (≈ 0.288 µg/mL) | 0.94 (≈ 0.43 µg/mL) | ≤1 | 0.47 (≈ 0.215 µg/mL) | 0.47 (≈ 0.215 µg/mL) | 3.13 (≈ 1.43 µg/mL) | IC50 (J774 MΦ): > 200 µM; MICs against all Gram-positive strains in the panel [4]: sub-micromolar; IC50 (HepG2 cells): > 200 µM; IC50 (HeLa cells): > 100 µM; log10 reduction of viable MRSE biofilm cells (MRSE 35984 biofilms; CFU counts from CBD pegs, at the MBEC value): 3.18±0.40 log10; MBC (MRSE 35984 biofilms): 0.59 µM (≈ 0.27 µg/mL); log10 reduction of viable CFUs, MRSE 35984 biofilm (MRSE 35984 biofilms; at 3.13 μM): ~5 log10; MBC (VRE 700221 biofilms): 0.39 µM (≈ 0.178 µg/mL); MIC (Mtb CDC1551; [9]): 0.8 µM (≈ 0.366 µg/mL); MRSA 44 MBEC (MRSA 44 biofilms): 6.25^b/6.25^b μM; MIC MRSA-1707 (MRSA-1707): 0.59^a μM and 0.59 μM
4 | Oc1c(Br)c(Br)c(Br)c2nc3ccccc3nc12 [Compound 150] | – | – | 0.1 (≈ 0.0433 µg/mL) | 0.3 (≈ 0.13 µg/mL) | – | – | – | – | – | – | – | – | melting point: 222 to 224 °C
5 | O=C(O)CN(CCN(CC(=O)O)CC(=O)O)CC(=O)O [EDTA, ethylenediaminetetraacetic acid, reference compound] | 125 (≈ 36.5 µg/mL) | 500 (≈ 146 µg/mL) | – | – | – | – | – | – | – | – | – | > 2000 | up-regulation of panel of iron uptake genes [7]: did not upregulate this panel of iron uptake genes; MBC (MRSE 35984 biofilms): 1000 µM (≈ 292 µg/mL); % Hemolysis at 200 μM (human red blood cells; human, 1 h, pH 7.2): ≤1%; MBC (MRSA-1707 biofilms): > 2000 µM
6 | COc1cccc(OC)c1C(=O)N[C@@H]1C(=O)N2[C@@H]1SC(C)(C)[C@@H]2C(=O)O [Methicillin, reference compound] | – | – | – | – | 37.5 (≈ 14.3 µg/mL) | 37.5 (≈ 14.3 µg/mL) | 37.5 (≈ 14.3 µg/mL) | > 100 | – | 6.25 (≈ 2.38 µg/mL) | 37.5 (≈ 14.3 µg/mL) | – | MIC [8]: 0.78 µM (≈ 0.297 µg/mL)
7 | c1ccc(CN(CCN(Cc2ccccn2)Cc2ccccn2)Cc2ccccn2)nc1 [TPEN, N,N,N′,N′-tetrakis(2-pyridinylmethyl)-1,2-ethanediamine, reference compound] | 46.9 (≈ 19.9 µg/mL) | 46.9 (≈ 19.9 µg/mL) | 46.9 (≈ 19.9 µg/mL) | – | – | – | – | – | ≤1 | – | – | 500 (≈ 212 µg/mL) | up-regulation of panel of iron uptake genes [7]: did not upregulate this panel of iron uptake genes; MBC (VRE 700221 biofilms): 188 µM (≈ 79.8 µg/mL); MBC (MRSA-1707 biofilms): 375 µM (≈ 159 µg/mL)

From patent US12060334B2, “3-substituted phenazine derivatives as antimicrobial agents” (University of Florida Research Foundation, Incorporated, priority 2021, dated 2024)
